Laboratory results reported in US20080021069A1, “Receptor Function Regulating Agent” (TAKEDA PHARMACEUTICAL COMPANY LIMITED, priority 2004, published 2008).
Counter-ions that a name gives are not always drawn.

Molecular target: T1, human GPR40 (Homo sapiens, UniProt O14842)
T1 construct: expressed in transfected cells; host or cells: CHO(dhfr-) cells: line CHO-hGPR40 No. 104 of WO2004/041266, with a stably expressed NFAT-TA-Luc reporter (CHO(dhfr-)/GPR40-NFAT-Luc)
Test: GPR40 antagonist activity with changes in intracellular calcium concentration as index (NFAT-luciferase reporter, CHO(dhfr-)/GPR40-NFAT-Luc cells)
Assay type: cell-based
Conditions: CHO cell line expressing human GPR40, NFAT-Luc reporter; GPR40 agonist 3-(4-((6-benzyloxy-2',6'-dimethyl-biphenyl-3-yl)methoxy)phenyl)propanoic acid 40 nM; 4 hr culture; 0.1% fatty acid-free BSA
Excerpt: Evaluation of GPR40 antagonist activity with changes in intracellular calcium concentration as index
An assay system of GPR40 antagonist was established as follows. In this assay system, as the GPR40 agonist, 3-(4-((6-benzyloxy-2′,6′-dimethyl-biphenyl-3-yl)methoxy)phenyl)propanoic acid (compound described in Example 340 of WO2004/041266) was used.
First, NFAT-TA was cut out from pNFAT-TA-Luc (manufactured by BD Bioscience Clontech) with HindIII and NheI, the recovered fragment was inserted into pGL3 basic neo digested with HindIII and NheI to give plasmid:pGL3 basic neo NFAT-TA-Luc.
This plasmid was used for “the CHO cell line (CHO-hGPR40 No. 104), which was made to express human GPR40” described in WO2004/041266, and a cell line CHO(dhfr-)/GPR40-NFAT-Luc, wherein a reporter gene was stably expressed by a method known per se, was prepared.
This cell line was diluted with a medium (nucleic acid-free MEM (Minimum Essential Medium)—α medium added with dialyzed FBS (Fetal Bovine Serum) to a final concentration of 10%) in such a manner that 2×10^4 cells/100 μl would be contained, dispensed to a white walled 96 well plate (manufactured by Coster) by 100 μl per well, and cultured overnight in a CO2 incubator. Then the medium was removed by suction from the 96 well plate, and a 10 mM test compound-dimethyl sulfoxide (manufactured by Wako Pure Chemical Industries, Ltd.) solution diluted with a medium (nucleic acid-free MEM—α medium added with bovine serum albumin (BSA) free of fatty acid to a final concentration of 0.1%) to each concentration was added by 50 μl per well. Further, 3-(4-((6-benzyloxy-2′,6′-dimethyl-biphenyl-3-yl)methoxy)phenyl)propanoic acid diluted with a medium (nucleic acid-free MEM-α (medium added with BSA free of fatty acid to a final concentration of 0.1%) to a final concentration of 40 nM was added to the 96 well plate by 50 μl per well.
After culture in a CO2 incubator for 4 hr, the culture medium was removed from the 96 well plate. Then, PicaGene (manufactured by TOYO INK MFG. CO., LTD.) was added to the 96 well plate, and the luciferase activity was determined using PerkinElmer ARVO (trade name, manufactured by PerkinElmer), based on which changes in the intracellular calcium concentration were evaluated. After assay of luciferase activity, nonlinear regression analysis was performed using PRISM 3 (trade name, manufactured by GraphPad) and IC50 value was calculated with changes in the intracellular calcium concentration as an index.
In the same manner as in Experimental Example 1, the IC50 value of the compound of the present invention was calculated.

T1 sequence (O14842 whole entry): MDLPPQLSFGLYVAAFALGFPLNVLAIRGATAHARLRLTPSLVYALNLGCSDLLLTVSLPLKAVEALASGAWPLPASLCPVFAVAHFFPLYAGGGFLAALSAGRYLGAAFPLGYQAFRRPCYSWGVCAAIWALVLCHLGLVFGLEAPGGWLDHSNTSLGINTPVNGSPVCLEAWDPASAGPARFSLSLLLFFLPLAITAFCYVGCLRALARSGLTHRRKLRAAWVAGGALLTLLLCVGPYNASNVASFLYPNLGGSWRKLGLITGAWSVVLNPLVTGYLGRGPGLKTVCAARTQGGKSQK

Row | IC50 [nM] | Compound
1 | < 100 | CC(C)Oc1ccc(-n2c(SCc3ccc(Cl)cc3)nc3cc(Cl)ccc32)cc1 [Example 46, 5-Chloro-2-[(4-chlorobenzyl)thio]-1-(4-isopropoxyphenyl)-1H-benzimidazole]
2 | < 100 | CCOc1ccc(-n2c(NCc3ccc(Br)cc3)nc3ccc(Cl)cc32)cc1 [Example 50, N-(4-Bromobenzyl)-6-chloro-1-(4-ethoxyphenyl)-1H-benzimidazol-2-amine]
3 | < 100 | CCOc1ccc(-n2c(NCc3ccc(C(C)(C)C)cc3)nc3ccc(Cl)cc32)cc1 [Example 51, N-(4-tert-Butylbenzyl)-6-chloro-1-(4-ethoxyphenyl)-1H-benzimidazol-2-amine]
4 | < 100 | CCOc1ccc(-n2c(SCc3ccc(Cl)cc3)nc3cc(Cl)ccc32)cc1 [Example 65, 5-Chloro-2-[(4-chlorobenzyl)thio]-1-(4-ethoxyphenyl)-1H-benzimidazole hydrochloride]
5 | < 100 | FC(F)(F)COc1ccc(-n2c(SCc3ccc(Cl)cc3)nc3cc(Cl)ccc32)cc1 [Example 67, 5-chloro-2-[(4-chlorobenzyl)thio]-1-[4-(2,2,2-trifluoroethoxy)phenyl]-1H-benzimidazole]
6 | < 100 | CCOc1ccc(-n2c(NC(C)c3ccc(Br)cc3)nc3ccc(Cl)cc32)cc1 (centres unmarked) [Example 71, N-[1-(4-Bromophenyl)ethyl]-6-chloro-1-(4-ethoxyphenyl)-1H-benzimidazol-2-amine]

Row | Compound | IC50 [nM]
7 | CCCCOc1ccc(-n2c(NCc3ccc(C(C)(C)C)cc3)nc3ccc(Cl)cc32)cc1 [Example 75, 1-(4-Butoxyphenyl)-N-(4-tert-butylbenzyl)-6-chloro-1H-benzimidazol-2-amine] | < 100

Tested on: not given
Test: not given
Conditions: not given

Row | melting point [°C] | Compound
8 | 188 to 189 | CCOc1ccc(-n2c(NCc3ccc(C(C)(C)C)cc3)nc3ccc(Cl)cc32)cc1.Cl [Example 70, N-(4-tert-Butylbenzyl)-6-chloro-1-(4-ethoxyphenyl)-1H-benzimidazol-2-amine hydrochloride]
9 | 150 to 151 | FC(F)(F)COc1ccc(-n2c(NCc3ccc(Cl)cc3)nc3ccc(Cl)cc32)cc1 [Example 79, 6-Chloro-N-(4-chlorobenzyl)-1-[4-(2,2,2-trifluoroethoxy)phenyl]-1H-benzimidazol-2-amine]
10 | 112 to 113 | CCCOc1ccc(-n2c(NCc3ccc(Br)cc3)nc3cc(Cl)ccc32)cc1 [Example 84, N-(4-Bromobenzyl)-5-chloro-1-(4-propoxyphenyl)-1H-benzimidazol-2-amine]
11 | 122 to 123 | CCCOc1ccc(-n2c(NCc3ccc(Cl)cc3)nc3cc(Cl)ccc32)cc1 [Example 85, 5-Chloro-N-(4-chlorobenzyl)-1-(4-propoxyphenyl)-1H-benzimidazol-2-amine]
12 | 146 to 147 | FC(F)(F)COc1ccc(-n2c(NCc3ccc(Br)cc3)nc3cc(Cl)ccc32)cc1 [Example 90, N-(4-Bromobenzyl)-5-chloro-1-[4-(2,2,2-trifluoroethoxy)phenyl]-1H-benzimidazol-2-amine]
13 | 138 to 139 | FC(F)(F)COc1ccc(-n2c(NCc3ccc(Cl)cc3)nc3cc(Cl)ccc32)cc1 [Example 91, 5-Chloro-N-(4-chlorobenzyl)-1-[4-(2,2,2-trifluoroethoxy)phenyl]-1H-benzimidazol-2-amine]
14 | 138 to 139 | FC(F)(F)COc1ccc(-n2c(NCc3ccc(Cl)cc3)nc3cc(Cl)c(Cl)cc32)cc1 [Example 104, 5,6-Dichloro-N-(4-chlorobenzyl)-1-[4-(2,2,2-trifluoroethoxy)phenyl]-1H-benzimidazol-2-amine]
15 | 133 to 134 | CCOC(=O)c1ccc2c(c1)nc(SCc1ccc(Cl)cc1)n2-c1ccc(OCC)cc1 [Example 107, Ethyl 2-[(4-chlorobenzyl)thio]-1-(4-ethoxyphenyl)-1H-benzimidazole-5-carboxylate]
16 | 163 to 164 | CC(C)(C)OC(=O)Nc1ccc(-n2c(SCc3ccc(Cl)cc3)nc3ccc(Cl)cc32)cc1 [Example 114, tert-Butyl (4-{6-chloro-2-[(4-chlorobenzyl)thio]-1H-benzimidazol-1-yl}phenyl)carbamate]
17 | 121 to 122 | OCc1ccc(-n2c(SCc3ccc(Cl)cc3)nc3ccc(Cl)cc32)cc1 [Example 115, (4-{6-Chloro-2-[(4-chlorobenzyl)thio]-1H-benzimidazol-1-yl}phenyl)methanol]
18 | 97 to 98 | COCc1ccc(-n2c(SCc3ccc(Cl)cc3)nc3ccc(Cl)cc32)cc1 [Example 116, 6-Chloro-2-[(4-chlorobenzyl)thio]-1-[4-(methoxymethyl)phenyl]-1H-benzimidazole]
19 | 95 to 96 | CCOCc1ccc(-n2c(SCc3ccc(Cl)cc3)nc3ccc(Cl)cc32)cc1 [Example 117, 6-Chloro-2-[(4-chlorobenzyl)thio]-1-[4-(ethoxymethyl)phenyl]-1H-benzimidazole]
20 | 193 to 194 | Clc1ccc(CSc2nc3ccc(Cl)cc3n2-c2ccc(OCc3ccccc3)cc2)cc1 [Example 119, 1-[4-(Benzyloxy)phenyl]-6-chloro-2-[(4-chlorobenzyl)thio]-1H-benzimidazole]
21 | 143 to 144 | Clc1ccc(CSc2nc3ccc(Cl)cc3n2-c2ccc(C3=NCCO3)cc2)cc1 [Example 124, 6-Chloro-2-[(4-chlorobenzyl)thio]-1-[4-(4,5-dihydro-1,3-oxazol-2-yl)phenyl]-1H-benzimidazole]
22 | 107 to 108 | Clc1ccc(CSc2nc3ccc(Cl)cc3n2-c2ccccn2)cc1 [Example 130, 6-Chloro-2-[(4-chlorobenzyl)thio]-1-(pyridin-2-yl)-1H-benzimidazole]
23 | 137 to 138 | Clc1ccc(CSc2nc3cc(Cl)ccc3n2-c2ccc(OCc3ccccc3)cc2)cc1 [Example 133, 1-[4-(Benzyloxy)phenyl]-5-chloro-2-[(4-chlorobenzyl)thio]-1H-benzimidazole]
24 | 130 to 131 | Clc1ccc(CSc2nc3ccc(Cl)cc3n2-c2ccc(-c3cnco3)cc2)cc1 [Example 136, 6-Chloro-2-[(4-chlorobenzyl)thio]-1-[4-(1,3-oxazol-5-yl)phenyl]-1H-benzimidazole]
25 | 143 to 144 | CCOc1ccc(-n2c(SCc3ccc(Br)cc3)nc3cccc(Cl)c32)cc1 [Example 137, 2-[(4-Bromobenzyl)thio]-7-chloro-1-(4-ethoxyphenyl)-1H-benzimidazole]
26 | 130 to 131 | CCOc1ccc(-n2c(SCc3ccc(Cl)cc3)nc3cccc(Cl)c32)cc1 [Example 138, 7-Chloro-2-[(4-chlorobenzyl)thio]-1-(4-ethoxyphenyl)-1H-benzimidazole]
27 | 175 to 176 | CCOc1ccc(-n2c(SCc3ccc(C(C)(C)C)cc3)nc3cccc(Cl)c32)cc1 [Example 139, 2-[(4-tert-Butylbenzyl)thio]-7-chloro-1-(4-ethoxyphenyl)-1H-benzimidazole]
28 | 88 to 89 | FC(F)(F)Oc1ccc(-n2c(SCc3ccc(Cl)cc3)nc3ccc(Cl)cc32)cc1 [Example 141, 6-Chloro-2-[(4-chlorobenzyl)thio]-1-[4-(trifluoromethoxy)phenyl]-1H-benzimidazole]
29 | 111 to 112 | FC(F)(F)Oc1ccc(-n2c(SCc3ccc(Cl)cc3)nc3cc(Cl)c(Cl)cc32)cc1 [Example 142, 5,6-Dichloro-2-[(4-chlorobenzyl)thio]-1-[4-(trifluoromethoxy)phenyl]-1H-benzimidazole]

Row | Compound | melting point [°C]
30 | CCCCOc1ccc(-n2c(NCc3ccc(Br)cc3)nc3ccc(Cl)cc32)cc1 [Example 77, N-(4-Bromobenzyl)-1-(4-butoxyphenyl)-6-chloro-1H-benzimidazol-2-amine] | 123 to 124
31 | CCCCOc1ccc(-n2c(NCc3ccc(Cl)cc3)nc3cc(Cl)ccc32)cc1 [Example 87, 1-(4-Butoxyphenyl)-5-chloro-N-(4-chlorobenzyl)-1H-benzimidazol-2-amine] | 100 to 101
32 | CCCCOc1ccc(-n2c(NCc3ccc(Br)cc3)nc3cc(Cl)ccc32)cc1 [Example 88, N-(4-Bromobenzyl)-1-(4-butoxyphenyl)-5-chloro-1H-benzimidazol-2-amine] | 95 to 96
